In general, melting point refers to the temperature of the solid-liquid transition.

The source of these data is a melting point compilation (Tetko et al.; mined from patent text by program, amines drawn as free bases though some values may be those of a salt).

Take `CC1(C)SCN(C(=O)[C@@H](O)[C@H](Cc2ccccc2)NC(=O)O[C@H]2CCOC2)[C@@H]1C(=O)N[C@H]1CCCc2ccccc21`: the melting point was in the range of 103 to 105 °C.

Turning to `CC1(C)Cc2cccc(OCCNCc3cccc(C4=C(F)CCC4)c3)c2O1`, the melting point turned out to be 145 °C.

For the molecule `CCON=C(CC)C1=C(O)CC(c2ccc3c(c2)NC(=O)C(C)O3)CC1=O` (stereo unspecified), the melting point was in the range of 144 to 146 °C.

The molecule `COC(=O)c1nn(C2CCCCO2)cc1NC(=O)c1ccccc1` (stereo unspecified) registered a melting point of 124 to 125 °C.

Molecule `CCC(=C(c1ccccc1)c1ccc(C=CC(=O)O)cc1)c1ccccc1` returned a melting point of 148 to 150 °C.

On to `CCOC(=O)COc1ccc(Cn2c(-c3ccc(OCc4ccccc4)cc3)c(C)c3cc(OCc4ccccc4)ccc32)cc1`, for which the melting point is 129 to 131 °C.

As to `COC(=O)C1=C(C)NC(C)=C(C(=O)O)C1c1ccccc1Cl` (stereo unspecified), the melting point is 210 °C.

In turn, `CSc1nc(Cl)c(-c2c(F)cc(F)cc2F)c(Cl)n1` registered a melting point of 75 °C.

In turn, `O=C1CCCC(=O)N1c1ccc([N+](=O)[O-])cc1` gave a melting point of 207 to 209 °C.

`CCN(C)C1=NS(=O)(=O)c2ccc(Cl)cc2N1`: the melting point was above 220 °C.

Molecule `CCCCCCCCn1nc(C)c(N=Nc2c(O)cc(S(=O)(=O)N(CC)CC)c3ccccc23)c1O` had a melting point of 122 to 123 °C.

`COc1ccc2[nH]c(C(=O)N3CCC[C@H](C)C3)cc2c1` displayed a melting point of 189 to 192 °C.

As for `COC(=O)CCC(=O)OCc1cc(CCCCCOc2c(Cl)cc(C3=NCCO3)cc2Cl)on1`, the melting point lay within 39 to 41 °C.

The molecule `CN(C(=O)c1cc2ccccc2[nH]1)C1N=C(c2ccccc2)c2ccccc2NC1=O` (racemic) had a melting point of 287 to 288 °C.

`COc1ccc(CCc2ccccn2)cc1OCCCCCc1ccccc1`: the melting point was 59 to 62 °C.

Molecule `N#Cc1c(-c2ccccc2)c(-c2ccccc2)nn(CC(=O)NN)c1=O` had a melting point of 191 to 192 °C.

`Nc1ccc(NC(=O)C=C2CC(C(=O)O)Nc3cc(Cl)cc(Cl)c32)cc1` (racemic) yielded a melting point above 250 °C.

`CC(=Cc1ccsc1Cl)[N+](=O)[O-]` registered a melting point of 73 to 76 °C.

With `COc1ccccc1-c1nc(N)ncc1-c1ccc(=O)[nH]n1`, the melting point was found to be 273 °C.

`CCCc1nc2c(N)nc3ccccc3c2n1CCCC1(O)CCCCC1` had a melting point of 200 to 202 °C.

For the molecule `O=C(O)c1cccnc1NCCSCc1nccs1`, the melting point lay within 133 to 134 °C.

Take `COC(=O)c1ccc(Cc2cn(C)c3ccc(CC(C)C(=O)O)cc23)c(OC)c1` (stereo unspecified): the melting point is 149 to 151 °C.

Consider `Cc1c(Sc2ccc(Cl)cc2)nn(-c2ccc3c(c2)OCO3)c(=O)c1C#N`, for which the melting point is 166 to 168 °C.

`CN(C)CCCOc1ccc2sc(C(=O)Nc3ccccc3N)cc2c1`: the melting point was 164 to 167 °C.

On to `OC(CN1CC=C(c2ccc(Cl)cc2)CC1)c1ccc(Cl)cc1` (stereo unspecified), for which the melting point was in the range of 152 to 153 °C.

`COc1ccccc1NCCN1CCC(C(=O)c2ccc(F)cc2)CC1` returned a melting point of 116 to 120 °C.

Take `CCOC(=O)c1cnc([N+](=O)[O-])n1C`: the melting point lay within 65 to 66 °C.

Regarding `CC(C)CNC(=O)C=CC=Cc1ccc2c(c1)OCO2`, the melting point was in the range of 156 to 160 °C.

With `O=C1NC(=S)SC1=Cc1ccc(OCc2ccccc2-c2ccccc2C(=O)O)cc1`, the melting point is above 225 °C.

Take `NC(=O)N1C(=O)C(C(=O)c2ccc(Br)s2)c2cc(Cl)ccc21` (stereo unspecified): the melting point was in the range of 228 to 229 °C.

For `N#CCc1cccc2c(=O)cc(C3(Br)CCCCC3)oc12`, the melting point was 144 to 145 °C.

`C=C(C)COc1cc(C)c(NC=O)c(C)c1C` registered a melting point of 144 to 145 °C.

Molecule `C=CCN1CC(C)N(C(c2cccc(O)c2)c2cccc(C#N)c2)CC1C` (stereo unspecified) had a melting point of 169 to 171 °C.

On to `OCc1ccc(-c2ccccc2)cn1`, for which the melting point lay in the range of 86 to 87 °C.

As to `CCOc1ccc(-c2nc3n(c2-c2ccncc2)CCC3)cc1`, the melting point was in the range of 133 to 135 °C.

As to `CCOC(=O)Cc1nn(Cc2nc(-c3ccccc3C(F)(F)F)no2)c(=O)c2ccccc12`, the melting point lay in the range of 111 to 115 °C.

The molecule `CCOC(=O)c1ccc2c(c1)N(C(=O)c1ccccc1)Cc1ccccc1O2` had a melting point of 149 to 150 °C.

On to `COc1cc(CC(C#N)C(OC)OC)cc(OC)c1Cl` (stereo unspecified), for which the melting point worked out at 84 °C.

The molecule `CCN1CCCC1CNC(=O)c1ccc(Nc2ncnc3cc(C(F)(F)F)ccc23)cc1` (stereo unspecified) registered a melting point of 150 to 152 °C.

On to `CCOC(=O)CCC(=O)Oc1cccc(-c2cn3c(n2)sc2ccccc23)c1`, for which the melting point is 70 to 74 °C.

On to `C=Cn1cc(C(=O)O)c(=O)c2cc(F)c(O)nc21`, for which the melting point fell in the range of 256 to 259 °C.

Molecule `COc1cc2nc(N3CCN(C(=O)NC4CCCC4)CC3)nc(N)c2cc1OC` returned a melting point of 200 to 202 °C.

Regarding `CCCc1nn(-c2ccc(C(F)(F)F)cn2)cc1CCCOc1cc(CCC(=O)O)n(C2CCCCC2)n1`, the melting point fell in the range of 164 to 165 °C.

For the molecule `Cn1c(NCCCCCC(=O)O)c(NC=O)c(=O)n(C)c1=O`, the melting point lay in the range of 152 to 153 °C.

The molecule `O=c1nc(NCN2CCOCC2)c(F)cn1CN1CCOCC1` registered a melting point of 156 to 158 °C.

For the molecule `CCCc1cc(C(=O)NCc2ccccn2)ccc1OC(C(=O)NS(=O)(=O)c1ccc(C(C)C)cc1)c1ccc2c(c1)OCO2` (stereo unspecified), the melting point fell in the range of 168 to 170 °C.

For `Cc1noc(NS(=O)(=O)c2ccccc2-c2ccc(-c3ncco3)cc2CN(CC(F)(F)F)C(=O)C(C)(C)C)c1C`, the melting point was 146 to 147 °C.

With `Nc1c(-c2cc(Cl)ccc2O)c2cc(Cl)ccc2[nH]c1=O`, the melting point lay within 184 to 185 °C.

For the molecule `COC(=O)n1c(Br)c(Br)c(C#N)c1Br`, the melting point was in the range of 120 to 122 °C.

On to `O=C(c1cccc(OCc2ccccc2)c1)C(CCc1nnn[nH]1)c1ccccc1` (stereo unspecified), for which the melting point was 136 to 138 °C.

`CCOC(=O)C12CC1CN(S(=O)(=O)c1ccc(C)cc1)C2c1ccccc1` (stereo unspecified): the melting point was 123 to 124 °C.

`COc1ccccc1C1CC(=O)c2c(C)coc2C1` (stereo unspecified) registered a melting point of 79 to 80 °C.

Consider `CCOC(=O)N1C(=O)OC(c2c(Cl)cccc2OC)C1=O` (stereo unspecified), for which the melting point was 196 to 200 °C.

Turning to `Cc1cc(Nc2ccnc(Nc3ccc(S(=O)(=O)N4CCC(C(O)Cc5ncccc5C)CC4)cc3)n2)ccc1F` (stereo unspecified), the melting point lay in the range of 103 to 104 °C.

Consider `CCOC(=O)c1cn(CC)c2nn(C)cc2c1=O`, for which the melting point was 170 to 172 °C.

Molecule `COC(=O)CCC(=O)N(O)Cc1c(C)n(C(=O)c2ccc(Cl)cc2)c2ccc(OC)cc12` displayed a melting point of 158 °C.

Consider `Cc1ccc(Cn2ccc3cc(Br)ccc32)cc1`, for which the melting point fell in the range of 56 to 57 °C.

`CNC(=O)c1ccccc1Nc1nc(Nc2ccc3c(c2)CN(CCOC)CCS3)ncc1Cl` yielded a melting point of 176 to 177 °C.

Molecule `Cc1cccc2c1nc(-c1ccccc1[N+](=O)[O-])n2CC(C)O` (stereo unspecified) came in with a melting point of 171 to 172 °C.

On to `O=C(Oc1cc(=O)[nH]cc1Cl)c1ccccc1`, for which the melting point was 196 to 197 °C.

Regarding `CC(C)C[C@H](NC(=O)OCC1CCCCCC1)C(=O)N[C@@H](Cc1ccccc1)C(=O)CSCc1ccco1`, the melting point was in the range of 77 to 79 °C.
